The results in this text go back to patent publication US20040087633A1, “Methylidene oxazolidinone compound and preparation method thereof” (Korea Institute of Science and Technology, priority 2002, published 2004).

In brackets after ≈: the same amount, converted by molar mass.

Common to all, as to test: Anti-microbial activity test in vitro (agar dilution MIC)
The subject of one assay is CRSA C1062. It counts as cell-based, Staphylococcus aureus. The following applies: CRSA C1062; Agar Dilution method, Mueller Hinton Agar, 18 hours at 37° C. Summed up: (§1)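 Agar dilution on Mueller Hinton agar with twofold serial compound dilutions; strains grown 18 h at 37 °C. MIC (μg/ml) read visually.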
Background: In agar dilution the substance is mixed into plates at graded concentrations.

The subject of another assay is CRSA C6043. It counts as cell-based, Staphylococcus aureus. Conditions: CRSA C6043; Agar Dilution method, Mueller Hinton Agar, 18 hours at 37° C. The essentials: as §1
In a further assay the test system is MRSA C2207. It counts as cell-based, Staphylococcus aureus. The following applies: MRSA C2207; Agar Dilution method, Mueller Hinton Agar, 18 hours at 37° C. The essentials:
as §1

A further assay relates to MRSA C5100. It counts as cell-based, Staphylococcus aureus. The following applies: MRSA C5100; Agar Dilution method, Mueller Hinton Agar, 18 hours at 37° C. Summed up:
as §1

The next assay deals with MRSA C6068. It counts as cell-based, Staphylococcus aureus. Conditions: MRSA C6068; Agar Dilution method, Mueller Hinton Agar, 18 hours at 37° C. The essentials:
as §1

The test system of a further assay is MSSA C2214. The assay is classed as cell-based, Staphylococcus aureus. The following applies: MSSA C2214; Agar Dilution method, Mueller Hinton Agar, 18 hours at 37° C. Summed up:
as §1

The subject of a further assay is MSSA C7142. The assay is classed as cell-based, Staphylococcus aureus. Conditions: MSSA C7142; Agar Dilution method, Mueller Hinton Agar, 18 hours at 37° C. Summed up: as §1
In the next assay the test system is E. faecalis ATCC29212. It counts as cell-based. The following applies: E. faecalis ATCC29212; Agar Dilution method, Mueller Hinton Agar, 18 hours at 37° C. The essentials:
as §1

Another assay concerns E. faecalis C6288. It counts as cell-based. Conditions: E. faecalis C6288; Agar Dilution method, Mueller Hinton Agar, 18 hours at 37° C. The essentials:
as §1

The test system of a further assay is E. faecalis C6291. It counts as cell-based. Conditions: E. faecalis C6291; Agar Dilution method, Mueller Hinton Agar, 18 hours at 37° C. Summed up: as §1
Another assay deals with E. faecium C2252. The assay is classed as cell-based. Conditions: E. faecium C2252; Agar Dilution method, Mueller Hinton Agar, 18 hours at 37° C. Summed up: as §1
In a further assay the test system is E. faecium C6301. It counts as cell-based. The following applies: E. faecium C6301; Agar Dilution method, Mueller Hinton Agar, 18 hours at 37° C. Summed up:
as §1

A further assay concerns S. aureus ATCC 29213. The assay is classed as cell-based. Conditions: Agar Dilution method, Mueller Hinton Agar, 18 hours at 37° C. Summed up: as §1
The subject of another assay is S. epidermidis ATCC12228. It counts as cell-based. Conditions: S. epidermidis ATCC12228; Agar Dilution method, Mueller Hinton Agar, 18 hours at 37° C. The essentials: as §1
A further assay deals with S. epidermidis C2230. It counts as cell-based. Conditions: S. epidermidis C2230; Agar Dilution method, Mueller Hinton Agar, 18 hours at 37° C. The essentials: as §1
The test system of a further assay is S. epidermidis C2235. It counts as cell-based. Conditions: S. epidermidis C2235; Agar Dilution method, Mueller Hinton Agar, 18 hours at 37° C. The essentials: as §1
A further assay concerns S. pyogenes ATCC8668. It counts as cell-based. The following applies: S. pyogenes ATCC8668; Agar Dilution method, Mueller Hinton Agar, 18 hours at 37° C. Summed up:
as §1

The test system of another assay is S. pyogenes C6003. The assay is classed as cell-based. Conditions: S. pyogenes C6003; Agar Dilution method, Mueller Hinton Agar, 18 hours at 37° C. Summed up:
as §1

For the next assay, the system named is S. pyogenes C6012. It counts as cell-based. The following applies: S. pyogenes C6012; Agar Dilution method, Mueller Hinton Agar, 18 hours at 37° C. Summed up: as §1
For the next assay, the system named is VRE C6487. The assay is classed as cell-based, Enterococcus faecium. The following applies: VRE C6487; Agar Dilution method, Mueller Hinton Agar, 18 hours at 37° C. The essentials:
as §1

In a further assay the test system is VRE C6488. It counts as cell-based, Enterococcus faecium. Conditions: VRE C6488; Agar Dilution method, Mueller Hinton Agar, 18 hours at 37° C. The essentials:
as §1

In the case of `CCOC(=O)C(Cl)=C1CCN(c2ccc(N3C[C@H](CNC(C)=O)OC3=O)cc2F)CC1` [Compound 15, N-[[(5S)-3-[3-fluoro-4-((4-(1-ethoxycarbonyl-1-chloro)-methylidene)piperidinyl)phenyl]-2-oxo-5-oxazolidinyl]methyl]acetamide], the “Minimum inhibition concentration (MIC)” value turned out to be 16 µg/mL (≈ 35.3 µM) with CRSA C1062; 16 µg/mL (≈ 35.3 µM) in the assay on CRSA C6043; 16 µg/mL (≈ 35.3 µM) in the assay with MRSA C2207; 16 µg/mL (≈ 35.3 µM) with MRSA C5100; 16 µg/mL (≈ 35.3 µM) in the assay on MRSA C6068; 8 µg/mL (≈ 17.6 µM) in the assay with MSSA C2214. For the same compound, the “Minimum inhibition concentration (MIC)” value in the assay with MSSA C7142 is 8 µg/mL (≈ 17.6 µM); in the assay on E. faecalis ATCC29212 it was 8 µg/mL (≈ 17.6 µM); in the assay on E. faecalis C6288 it was 8 µg/mL (≈ 17.6 µM); in the assay with E. faecalis C6291, 4 µg/mL (≈ 8.81 µM); with E. faecium C2252, 4 µg/mL (≈ 8.81 µM); in the assay with E. faecium C6301 it was 2 µg/mL (≈ 4.41 µM). For the same compound, the “Minimum inhibition concentration (MIC)” value in the assay on S. aureus ATCC 29213 turned out to be 32 µg/mL (≈ 70.5 µM); with S. epidermidis ATCC12228, 2 µg/mL (≈ 4.41 µM); in the assay on S. epidermidis C2230 it was 4 µg/mL (≈ 8.81 µM); with S. epidermidis C2235, 4 µg/mL (≈ 8.81 µM); in the assay on S. pyogenes ATCC8668, 2 µg/mL (≈ 4.41 µM); with S. pyogenes C6003 it was 2 µg/mL (≈ 4.41 µM). In addition, the results for the “Minimum inhibition concentration (MIC)” value in the assay on S. pyogenes C6012, in the assay on VRE C6487 and in the assay with VRE C6488 were 8 µg/mL (≈ 17.6 µM), 2 µg/mL (≈ 4.41 µM) and 4 µg/mL (≈ 8.81 µM), respectively.

For the compound `CC(=O)NC[C@H]1CN(c2ccc(N3CCC(=Cc4cc(-c5cccs5)no4)CC3)c(F)c2)C(=O)O1` [Compound 9, N-[[(5S)-3-[3-fluoro-4-((4-(3-thiophen-2-yl-5-isoxazolyl)-methylidene)piperidinyl)phenyl]-2-oxo-5-oxazolidinyl]methyl]acetamide], the “Minimum inhibition concentration (MIC)” value with CRSA C1062 turned out to be 32 µg/mL (≈ 64.4 µM); in the assay on CRSA C6043, 16 µg/mL (≈ 32.2 µM); with MRSA C2207, 32 µg/mL (≈ 64.4 µM); with MRSA C5100, 16 µg/mL (≈ 32.2 µM); with MRSA C6068 it was 16 µg/mL (≈ 32.2 µM); with MSSA C2214 it was 16 µg/mL (≈ 32.2 µM). For the same compound, the “Minimum inhibition concentration (MIC)” value in the assay with MSSA C7142 was determined as 32 µg/mL (≈ 64.4 µM); with E. faecalis ATCC29212, 16 µg/mL (≈ 32.2 µM); in the assay with E. faecalis C6288, 16 µg/mL (≈ 32.2 µM); with E. faecalis C6291, 16 µg/mL (≈ 32.2 µM); with E. faecium C2252 it was 16 µg/mL (≈ 32.2 µM); in the assay with E. faecium C6301, 16 µg/mL (≈ 32.2 µM). The “Minimum inhibition concentration (MIC)” value in the assay with S. aureus ATCC 29213 came to 32 µg/mL (≈ 64.4 µM); in the assay on S. epidermidis ATCC12228, 4 µg/mL (≈ 8.06 µM); in the assay with S. epidermidis C2230, 8 µg/mL (≈ 16.1 µM); with S. epidermidis C2235 it was 8 µg/mL (≈ 16.1 µM); in the assay on S. pyogenes ATCC8668, 2 µg/mL (≈ 4.03 µM); in the assay with S. pyogenes C6003, 16 µg/mL (≈ 32.2 µM). For the same compound, the “Minimum inhibition concentration (MIC)” value with S. pyogenes C6012 amounted to 4 µg/mL (≈ 8.06 µM); with VRE C6487, 16 µg/mL (≈ 32.2 µM); with VRE C6488, 16 µg/mL (≈ 32.2 µM).

Turning to `CC(=O)NC[C@H]1CN(c2ccc(N3CCC(=CC(C)OC(=O)C(Cl)Cl)CC3)c(F)c2)C(=O)O1` (stereo partly drawn) [Compound 25, N-[[(5S)-3-[3-fluoro-4-(4-(2-(dichloroacetoxy)propylidene)-piperidinyl)-phenyl]-2-oxo-5-oxazolidinyl]methyl]acetamide], the “Minimum inhibition concentration (MIC)” value with CRSA C1062 stood at 16 µg/mL (≈ 31.8 µM); with CRSA C6043, 16 µg/mL (≈ 31.8 µM); in the assay on MRSA C2207 it was 16 µg/mL (≈ 31.8 µM); in the assay on MRSA C5100 it was 8 µg/mL (≈ 15.9 µM); in the assay with MRSA C6068 it was 8 µg/mL (≈ 15.9 µM); in the assay with MSSA C2214, 16 µg/mL (≈ 31.8 µM). The “Minimum inhibition concentration (MIC)” value in the assay on MSSA C7142 came to 16 µg/mL (≈ 31.8 µM); in the assay with E. faecalis ATCC29212, 8 µg/mL (≈ 15.9 µM); with E. faecalis C6288, 8 µg/mL (≈ 15.9 µM); in the assay on E. faecalis C6291 it was 8 µg/mL (≈ 15.9 µM); in the assay on E. faecium C2252 it was 8 µg/mL (≈ 15.9 µM); in the assay on E. faecium C6301, 8 µg/mL (≈ 15.9 µM). Also, the “Minimum inhibition concentration (MIC)” value came to 16 µg/mL (≈ 31.8 µM) in the assay with S. aureus ATCC 29213; 2 µg/mL (≈ 3.98 µM) in the assay on S. epidermidis ATCC12228; 8 µg/mL (≈ 15.9 µM) in the assay on S. epidermidis C2230; 8 µg/mL (≈ 15.9 µM) in the assay on S. epidermidis C2235; 2 µg/mL (≈ 3.98 µM) in the assay with S. pyogenes ATCC8668; 8 µg/mL (≈ 15.9 µM) with S. pyogenes C6003. Also, the “Minimum inhibition concentration (MIC)” value was determined as 2 µg/mL (≈ 3.98 µM) in the assay on S. pyogenes C6012, 4 µg/mL (≈ 7.96 µM) in the assay with VRE C6487 and 4 µg/mL (≈ 7.96 µM) in the assay on VRE C6488.

With `CC(=S)NC[C@H]1CN(c2ccc(N3CCC(=CC#N)CC3)c(F)c2)C(=O)O1` [Compound 26, N-[[(5S)-3-[3-fluoro-4-(4-(cyanomethylidene)piperidinyl)-phenyl]-2-oxo-5-oxazolidinyl]methyl]thioacetamide], the “Minimum inhibition concentration (MIC)” value in the assay with CRSA C1062 came out at 2 µg/mL (≈ 5.15 µM); in the assay with CRSA C6043, 2 µg/mL (≈ 5.15 µM); in the assay with MRSA C2207, 2 µg/mL (≈ 5.15 µM); in the assay with MRSA C5100 it was 1 µg/mL (≈ 2.57 µM); in the assay on MRSA C6068, 2 µg/mL (≈ 5.15 µM); in the assay on MSSA C2214, 2 µg/mL (≈ 5.15 µM). For the same compound, the “Minimum inhibition concentration (MIC)” value was 2 µg/mL (≈ 5.15 µM) with MSSA C7142; 2 µg/mL (≈ 5.15 µM) in the assay with E. faecalis ATCC29212; 1 µg/mL (≈ 2.57 µM) in the assay with E. faecalis C6288; 1 µg/mL (≈ 2.57 µM) in the assay on E. faecalis C6291; 1 µg/mL (≈ 2.57 µM) in the assay on E. faecium C2252; 1 µg/mL (≈ 2.57 µM) in the assay on E. faecium C6301. Further, the “Minimum inhibition concentration (MIC)” value in the assay with S. aureus ATCC 29213 was 2 µg/mL (≈ 5.15 µM); in the assay with S. epidermidis ATCC12228, 0.5 µg/mL (≈ 1.29 µM); in the assay with S. epidermidis C2230, 1 µg/mL (≈ 2.57 µM); with S. epidermidis C2235 it was 0.5 µg/mL (≈ 1.29 µM); with S. pyogenes ATCC8668, 0.5 µg/mL (≈ 1.29 µM); with S. pyogenes C6003 it was 0.25 µg/mL (≈ 0.644 µM). The “Minimum inhibition concentration (MIC)” value with S. pyogenes C6012 was found to be 0.25 µg/mL (≈ 0.644 µM); in the assay with VRE C6487, 0.5 µg/mL (≈ 1.29 µM); in the assay with VRE C6488, 0.5 µg/mL (≈ 1.29 µM).
